Data from paper PMC9646673, “A Novel, Orally Bioavailable, Small-Molecule Inhibitor of PCSK9 With Significant Cholesterol-Lowering Properties In Vivo” (Journal of Lipid Research, 2022).
Like-named read-outs stand apart in the source and are kept apart here.

How the values were obtained:
[1] = system: plasma PCSK9 protein levels; test: Second efficacy study: plasma total PCSK9 (ELISA); assay type: in vivo, mouse; settings: 50 mg/kg BID PO, from day 7, sustained for the remaining 4 weeks
From the text: (§1) Animal experiments were approved by the governmental central committee on animal experiments (AVD5010020172064) and TNO’s animal welfare body (TNO-471 and TNO-482). Female APOE∗3-Leiden.CETP transgenic mice (11–16 weeks of age) were bred at the animal facility of TNO-InnoSer (Leiden, The Netherlands). Female animals were used in this study as they are more responsive to dietary cholesterol and fat than males and therefore typically develop atherosclerosis more rapidly than male APOE∗3-Leiden and APOE∗3-Leiden.CETP mice on cholesterol-containing diets ([33], [34]). […] Body weight, food intake, and clinical signs of behavior were monitored throughout the studies. […]
In both studies, blood samples were collected at weekly intervals via tail vein sampling after fasting the mice for 4 h. […] Total plasma cholesterol levels were determined using a Cholesterol CHOD-PAP kit according to the manufacturer’s instructions. Plasma HDL-C levels were determined by first precipitating apoB-containing lipids using PEG 6000/glycine and then utilizing the Cholesterol CHOD-PAP kit ([35]). Non-HDL-C levels were determined by subtracting HDL-C levels from total cholesterol levels ([32]). Group-pooled lipoprotein profiles were determined by FPLC analysis using an AKTApurifier 10 FPLC system (GE Healthcare, Chicago, IL). […]

[2] = biological target: T1, PCSK9-D374Y (Homo sapiens, UniProt Q8NBP7, D374Y); test: ex vivo lymphocyte LDLR surface expression assay with recombinant PCSK9-D374Y; assay type: cell-based; settings: 4 μM, relative to PCSK9 D374Y and vehicle
T1 construct: purchased CycLex (Nagano, Japan); host or cells: added to primary human lymphocytes (PBMCs from a human donor)
T1 sequence (Q8NBP7 153-692 D374Y): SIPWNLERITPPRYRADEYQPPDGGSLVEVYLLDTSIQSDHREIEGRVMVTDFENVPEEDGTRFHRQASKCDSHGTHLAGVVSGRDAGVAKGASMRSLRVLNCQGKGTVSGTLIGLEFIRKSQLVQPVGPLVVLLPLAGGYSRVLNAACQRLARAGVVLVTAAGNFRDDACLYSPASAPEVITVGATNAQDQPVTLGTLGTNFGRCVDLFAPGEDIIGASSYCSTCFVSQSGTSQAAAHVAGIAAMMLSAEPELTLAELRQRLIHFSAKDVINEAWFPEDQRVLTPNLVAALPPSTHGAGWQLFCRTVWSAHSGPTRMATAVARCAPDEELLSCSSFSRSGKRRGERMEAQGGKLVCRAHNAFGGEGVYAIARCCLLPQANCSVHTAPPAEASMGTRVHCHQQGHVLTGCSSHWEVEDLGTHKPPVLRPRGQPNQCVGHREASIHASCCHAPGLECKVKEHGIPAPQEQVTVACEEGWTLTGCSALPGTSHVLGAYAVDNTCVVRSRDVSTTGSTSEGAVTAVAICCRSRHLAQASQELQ
T1 sequence (Q8NBP7 31-152 partner limits assumed): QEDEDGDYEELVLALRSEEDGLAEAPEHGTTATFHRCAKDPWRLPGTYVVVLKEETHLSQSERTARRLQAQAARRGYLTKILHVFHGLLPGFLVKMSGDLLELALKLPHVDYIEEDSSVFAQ
From the text: (§2) Ethics was granted by the Comité de Protection des Personnes Sud Méditerranée (ID: 2020-A00196-33). Studies using human samples abided by the Declaration of Helsinki principles.

[3] = biological target: T2, PCSK9-LDLR interaction (Homo sapiens, UniProt Q8NBP7); test: CircuLex PCSK9-LDLR in vitro binding assay; settings: in vitro biochemical binding assay; read-out: IC50 against the PCSK9-LDLR interaction
T2 construct: purchased CycLex (Nagano, Japan) CY8150
T2 sequence (Q8NBP7 153-692): as the sequence (Q8NBP7 153-692 D374Y) above, with Y222D counted along it
T2 sequence (Q8NBP7 31-152 partner limits assumed): as the sequence (Q8NBP7 31-152 partner limits assumed) above
From the text: as §2

[4] = system: hepatic LDLR protein; test: Second efficacy study: hepatic LDLR protein (Western blotting); assay type: in vivo, mouse; settings: day 35; NYX-PCSK9i 50 mg/kg BID PO, atorvastatin […]
[5] = system: hepatic LDLR protein; test: First efficacy study: hepatic LDLR protein (Western blotting); assay type: in vivo, mouse; settings: day 28
From the text: as §1
Treatment times were around 8:00 am and 4:00 pm each day. Throughout the in-life phase of the study, body weight and food intake (per cage) were measured at regular predetermined intervals while blood samples were collected every 7 days. […] Throughout the study, plasma cholesterol, triglycerides, HDL-C, lipoprotein profiles, PCSK9 expression levels, aspartate transaminase levels (AST), and alanine transaminase levels (ALT) were measured as described below.
The transcript levels of select genes in the liver tissue of mice treated with either vehicle or NYX-PCSK9i were analyzed. […] Differential transcriptional activity was calculated using the 2^–ΔΔCt method.

[6] = system: APOE∗3-Leiden.CETP mice; test: Second efficacy study (35 days, with atorvastatin): plasma lipids; assay type: in vivo, mouse
From the text: Animal experiments were approved by the governmental central committee on animal experiments (AVD5010020172064) and TNO’s animal welfare body (TNO-471 and TNO-482). Female APOE∗3-Leiden.CETP transgenic mice (11–16 weeks of age) were bred at the animal facility of TNO-InnoSer (Leiden, The Netherlands). Female animals were used in this study as they are more responsive to dietary cholesterol and fat than males and therefore typically develop atherosclerosis more rapidly than male APOE∗3-Leiden and APOE∗3-Leiden.CETP mice on cholesterol-containing diets ([33], [34]). Although measurements of atherosclerosis were not included as part of the present study, females were used with the prospect in mind that atherosclerosis studies will follow. The mice were housed under standard conditions that included 12 h light-dark cycles and access to a WTD and sterilized tap water ad libitum. Body weight, food intake, and clinical signs of behavior were monitored throughout the studies. […] Time t = 0 (weeks) was designated as the time at which mice were matched into groups after the 3-week run-in period in each efficacy study.
In both studies, blood samples were collected at weekly intervals via tail vein sampling after fasting the mice for 4 h. Blood samples were centrifugated (4500 g at 4°C), and the plasma was collected for the following analyses. Total plasma cholesterol levels were determined using a Cholesterol CHOD-PAP kit according to the manufacturer’s instructions. Plasma HDL-C levels were determined by first precipitating apoB-containing lipids using PEG 6000/glycine and then utilizing the Cholesterol CHOD-PAP kit ([35]). Non-HDL-C levels were determined by subtracting HDL-C levels from total cholesterol levels ([32]). Group-pooled lipoprotein profiles were determined by FPLC analysis using an AKTApurifier 10 FPLC system (GE Healthcare, Chicago, IL). Plasma PCSK9 levels were determined using a Mouse PCSK9 Quantikine ELISA kit as per the manufacturer’s protocol. ALT and AST levels of group-pooled samples were measured using the Roche Reflotron Plus System (Mannheim, Germany).

[7] = Pharmacokinetic study, single dose PO/SC/IV; assay type: in vivo, female C57BL/6 mice; settings: female, C57BL/6, mouse, plasma; for AUC(0-inf): read-out: AUC Infinity; for MRT inf: read-out: MRT Infinity
Procedure: Pharmacokinetic study protocols were reviewed and approved by the Institutional Animal Care and Use Committee of ChemPartner (Shanghai, China) under ethics A998HL0119. Female C57BL/6 mice aged 10–14 weeks (18–21 g) were purchased from Jihui Laboratory Animal Co. Ltd. (Shanghai, China) and were given ad libitum access to water and food throughout the in-life phase of the studies. […] At designated timepoints (t = 0.083, 0.25, 0.5, 1, 2, 4, 8, and 24 h), the animals were manually restrained, and 110 μl of blood per timepoint was collected into precooled EDTA-K2 tubes via the facial vein. […] Bioavailability was determined by comparing the plasma exposure levels (AUClast) of NYX-PCSK9i when given orally with plasma exposure levels obtained via the IV route.

[8] = day 0 (baseline), NYX-PCSK9i 50 mg/kg BID PO
[9] = day 14, NYX-PCSK9i 50 mg/kg BID PO
[10] = day 28, NYX-PCSK9i 50 mg/kg BID PO
[11] = day 35, NYX-PCSK9i 50 mg/kg BID PO

IC50 [3]: 323 nM
AUC(0-t) ([7]; iv, 5 mg/kg, 5 mg/kg IV): 2010 ng·h/mL
AUC(0-t) ([7]; po, 50 mg/kg, 50 mg/kg PO): ~8100 ng·h/mL
AUC(0-t) ([7]; sc, 50 mg/kg, 50 mg/kg SC): 25500 ng·h/mL
clearance ([7]; 5 mg/kg IV): 38.2 mL/min/kg
half-life ([7]; 5 mg/kg IV): 7.48 h
AUC(0-inf) ([7]; 5 mg/kg IV): 2190 ng·h/mL
MRT inf ([7]; 5 mg/kg IV): 6.42 h
Vd ([7]; 5 mg/kg IV, read-out: Vss): 14.7 L/kg
half-life ([7]; 50 mg/kg PO): 6.29 h
AUC(0-inf) ([7]; 50 mg/kg PO): 8700 ng·h/mL
MRT inf ([7]; 50 mg/kg PO): 7.07 h
half-life ([7]; 50 mg/kg SC): 9.11 h
AUC(0-inf) ([7]; 50 mg/kg SC): 30400 ng·h/mL
MRT inf ([7]; 50 mg/kg SC): 12.2 h
bioavailability ([7]; AUClast 50 mg/kg PO vs 5 mg/kg IV): 40%
SMILES: Cc1cn(-c2cc(CN3CCC[C@H](N)C3)cc(NC(=O)c3cc(-c4ccccc4)ccn3)c2)cn1 [NYX-PCSK9i]
elevation of total plasma PCSK9 levels [1]: approximately 2 fold
LDLR expression levels on surface of human lymphocytes [2]: large and significant increase in LDLR expression levels
increase in hepatic LDLR protein expression [4]: 45%
increase in hepatic LDLR protein levels ([5]; 30 mg/kg BID PO): 46%
increase in hepatic LDLR protein levels ([5]; 50 mg/kg BID PO): 51%
Plasma HDL-cholesterol [6, 8]: 0.9 ± 0.1 mmol/L
Plasma non- HDL-cholesterol [6, 8]: 14.6 ± 2.5 mmol/L
Plasma triglycerides (mean ± SD) [6, 8]: 5.3 ± 1.4 mmol/L
Plasma triglycerides (mean ± SD) ([6]; day 7, NYX-PCSK9i 50 mg/kg BID PO): 8.9 ± 3.3 mmol/L
Plasma HDL-cholesterol [6, 9]: 0.7 ± 0.4 mmol/L
Plasma non- HDL-cholesterol [6, 9]: 12.7 ± 0.6 mmol/L
Plasma triglycerides (mean ± SD) [6, 9]: 8.6 ± 2.7 mmol/L
Plasma triglycerides (mean ± SD) ([6]; day 21, NYX-PCSK9i 50 mg/kg BID PO): 7.1 ± 1.6 mmol/L
Plasma HDL-cholesterol [6, 10]: 0.8 ± 0.2 mmol/L
Plasma non- HDL-cholesterol [6, 10]: 11.8 ± 2.8 mmol/L
Plasma triglycerides (mean ± SD) [6, 10]: 6.0 ± 1.7 mmol/L
Plasma HDL-cholesterol [6, 11]: 0.7 ± 0.4 mmol/L
Plasma non- HDL-cholesterol [6, 11]: 12.8 ± 2.8 mmol/L
Plasma triglycerides (mean ± SD) [6, 11]: 5.8 ± 1.7 mmol/L
